Experiment: xn = mol fraction of the nth substance listed
Settings: 101 kPa, Liquid

CC(C)CCl [1-chloro-2-methylpropane] + COC(C)(C)C
viscosity [mPa·s]
Settings	283.15 K	288.15 K	293.15 K	298.15 K	303.15 K	308.15 K	313.15 K
x1 = 0.0492	0.3948	0.369	0.3527	0.3369	0.3194	0.3035	0.2885
x1 = 0.0996	0.4002	0.3742	0.3573	0.3412	0.3237	0.3076	0.2926
x1 = 0.1979	0.4107	0.3844	0.3664	0.3495	0.3322	0.316	0.3005
x1 = 0.3023	0.4224	0.3957	0.3764	0.3587	0.3412	0.3248	0.3091
x1 = 0.4027	0.4338	0.4065	0.3861	0.3676	0.3502	0.3335	0.3174
x1 = 0.504	0.4458	0.4178	0.396	0.3768	0.3594	0.3424	0.3261
x1 = 0.5971	0.4574	0.4287	0.4057	0.3856	0.3681	0.351	0.3341
x1 = 0.7036	0.4714	0.442	0.4173	0.3962	0.3786	0.3611	0.3437
x1 = 0.8003	0.4848	0.4547	0.4286	0.4063	0.3886	0.3707	0.3527
x1 = 0.9031	0.5	0.4689	0.4413	0.4179	0.3998	0.3813	0.3626
x1 = 0.9522	0.5078	0.4763	0.4478	0.4238	0.4054	0.3868	0.3676
x1 = 1	0.5155	0.4833	0.454	0.4296	0.4112	0.3921	0.3726

CCCCCl [1-chlorobutane] + COC(C)(C)C
viscosity [mPa·s]
Settings	283.15 K	288.15 K	293.15 K	298.15 K	303.15 K	308.15 K	313.15 K
x1 = 0.0499	0.395	0.369	0.3525	0.3367	0.3193	0.3033	0.288
x1 = 0.1002	0.4003	0.3741	0.3571	0.3409	0.3234	0.3074	0.2915
x1 = 0.2011	0.411	0.3844	0.3663	0.3494	0.332	0.3159	0.2991
x1 = 0.302	0.4224	0.3952	0.3758	0.3582	0.3408	0.3247	0.3068
x1 = 0.4007	0.4339	0.4063	0.3855	0.367	0.3498	0.3335	0.3146
x1 = 0.5026	0.4461	0.418	0.3959	0.3765	0.3592	0.3428	0.3229
x1 = 0.6029	0.4581	0.4295	0.4063	0.386	0.3686	0.3519	0.3312
x1 = 0.693	0.4686	0.4396	0.4155	0.3945	0.377	0.3605	0.3389
x1 = 0.8064	0.481	0.4518	0.4266	0.4048	0.3876	0.371	0.3482
x1 = 0.904	0.4912	0.4616	0.4355	0.4134	0.3966	0.3799	0.3563
x1 = 0.9509	0.4951	0.4658	0.4392	0.4173	0.4007	0.3841	0.3601
x1 = 1	0.4993	0.4701	0.4433	0.4214	0.405	0.3885	0.3642

CCCCOCC [butyl ethyl ether] + CCC(C)Cl
viscosity [mPa·s]
Settings	283.15 K	288.15 K	293.15 K	298.15 K	303.15 K	308.15 K	313.15 K
x2 = 0	0.4796	0.4509	0.4242	0.399	0.3756	0.356	0.3416
x2 = 0.0525	0.4785	0.4498	0.4233	0.3983	0.3749	0.3552	0.3404
x2 = 0.0974	0.4776	0.4489	0.4223	0.3974	0.374	0.3541	0.3392
x2 = 0.2001	0.475	0.4462	0.4203	0.3963	0.3732	0.3533	0.3379
x2 = 0.3027	0.4724	0.4436	0.4183	0.395	0.3724	0.3529	0.3372
x2 = 0.4	0.4697	0.4409	0.4165	0.394	0.3718	0.3523	0.3364
x2 = 0.5248	0.4665	0.4384	0.4148	0.3933	0.3716	0.3523	0.3361
x2 = 0.6016	0.4647	0.4368	0.4139	0.393	0.3716	0.3523	0.336
x2 = 0.7006	0.463	0.4353	0.413	0.393	0.3721	0.353	0.3363
x2 = 0.7993	0.462	0.4346	0.4132	0.3939	0.3735	0.3545	0.3376
x2 = 0.8997	0.4619	0.4349	0.4143	0.3959	0.3759	0.3569	0.3396
x2 = 0.9502	0.4623	0.4356	0.4152	0.3972	0.3775	0.3587	0.3414
